# System: 496974-208-R-J2-PDC complex spheroids, growth % test/control
# Test: Anticancer human tumor 496974-208-R-J2-PDC patient-derived pancreatic carcinoma cell line growth inhibition [CLK]
# Details: for IC50: curve of first compound; for viability, T/C: stronger effect = lower value
# Method in brief: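 Multi-cell-type spheroids combined patient-derived tumor cells with HUVEC endothelial cells and human mesenchymal stem cells. Paired agents were dosed in half-log steps down from about clinical Cmax, or from 10 microM where Cmax was unknown.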
# 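Also: spheroids exposed to the drugs for 7 days before readout.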
# 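For viability, T/C in this document: 100% = DMSO vehicle control wells.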
structure (smiles),measurement,setting,value
CCCS(=O)(=O)Nc1ccc(F)c(C(=O)c2c[nH]c3ncc(-c4ccc(Cl)cc4)cc23)c1F + CN1CCN(c2cc(C(=O)Nc3cc4cc(-c5cnn(C)c5)ccc4cn3)ccn2)CC1,IC50,second compound 0.0316 µM,8720 nM
same,IC50,second compound 0.1 µM,8610 nM
same,IC50,second compound 0.316 µM,< 31.6 nM
same,IC50,second compound 1 µM,< 31.6 nM
same,IC50,second compound 3.16 µM,< 31.6 nM
same,IC50,second compound 10 µM,< 31.6 nM
same,"viability, T/C","second compound 0.0316 µM, first compound 0.0316 µM",100%
same,"viability, T/C","second compound 0.0316 µM, first compound 0.1 µM",101%
same,"viability, T/C","second compound 0.0316 µM, first compound 0.316 µM",104%
same,"viability, T/C","second compound 0.0316 µM, first compound 1 µM",112%
same,"viability, T/C","second compound 0.0316 µM, first compound 3.16 µM",103%
same,"viability, T/C","second compound 0.0316 µM, first compound 10 µM",42.9%
same,"viability, T/C","second compound 0.1 µM, first compound 0.0316 µM",79.8%
same,"viability, T/C","second compound 0.1 µM, first compound 0.1 µM",92.3%
same,"viability, T/C","second compound 0.1 µM, first compound 0.316 µM",95.8%
same,"viability, T/C","second compound 0.1 µM, first compound 1 µM",95.3%
same,"viability, T/C","second compound 0.1 µM, first compound 3.16 µM",82.8%
same,"viability, T/C","second compound 0.1 µM, first compound 10 µM",44.8%
same,"viability, T/C","second compound 0.316 µM, first compound 0.0316 µM",7.31%
same,"viability, T/C","second compound 0.316 µM, first compound 0.1 µM",7.89%
same,"viability, T/C","second compound 0.316 µM, first compound 0.316 µM",8.26%
same,"viability, T/C","second compound 0.316 µM, first compound 1 µM",12.3%
same,"viability, T/C","second compound 0.316 µM, first compound 3.16 µM",13.7%
same,"viability, T/C","second compound 0.316 µM, first compound 10 µM",12.7%
same,"viability, T/C","second compound 1 µM, first compound 0.0316 µM",0.4%
same,"viability, T/C","second compound 1 µM, first compound 0.1 µM",1.65%
same,"viability, T/C","second compound 1 µM, first compound 0.316 µM",0.49%
same,"viability, T/C","second compound 1 µM, first compound 1 µM",0.54%
same,"viability, T/C","second compound 1 µM, first compound 3.16 µM",0.67%
same,"viability, T/C","second compound 1 µM, first compound 10 µM",1.12%
same,"viability, T/C","second compound 3.16 µM, first compound 0.0316 µM",0.36%
same,"viability, T/C","second compound 3.16 µM, first compound 0.1 µM",0.59%
same,"viability, T/C","second compound 3.16 µM, first compound 0.316 µM",1.11%
same,"viability, T/C","second compound 3.16 µM, first compound 1 µM",0.45%
same,"viability, T/C","second compound 3.16 µM, first compound 3.16 µM",1.82%
same,"viability, T/C","second compound 3.16 µM, first compound 10 µM",1.33%
same,"viability, T/C","second compound 10 µM, first compound 0.0316 µM",0.23%
same,"viability, T/C","second compound 10 µM, first compound 0.1 µM",0.7%
same,"viability, T/C","second compound 10 µM, first compound 0.316 µM",0.31%
same,"viability, T/C","second compound 10 µM, first compound 1 µM",1.08%
same,"viability, T/C","second compound 10 µM, first compound 3.16 µM",1.52%
same,"viability, T/C","second compound 10 µM, first compound 10 µM",0.99%
CC(C)CC(NC(=O)C(Cc1ccccc1)NC(=O)c1cnccn1)B(O)O (centres undefined) + CN1CCN(c2cc(C(=O)Nc3cc4cc(-c5cnn(C)c5)ccc4cn3)ccn2)CC1,IC50,second compound 0.0316 µM,4.54 nM
same,IC50,second compound 0.1 µM,3.84 nM
same,IC50,second compound 0.316 µM,< 0.949 nM
same,IC50,second compound 1 µM,< 0.949 nM
same,IC50,second compound 3.16 µM,< 0.949 nM
same,IC50,second compound 10 µM,< 0.949 nM
same,"viability, T/C","second compound 0.0316 µM, first compound 0.000949 µM",104%
same,"viability, T/C","second compound 0.0316 µM, first compound 0.003 µM",77.2%
same,"viability, T/C","second compound 0.0316 µM, first compound 0.00949 µM",1.7%
same,"viability, T/C","second compound 0.0316 µM, first compound 0.03 µM",0.32%
same,"viability, T/C","second compound 0.0316 µM, first compound 0.0949 µM",0.24%
same,"viability, T/C","second compound 0.0316 µM, first compound 0.3 µM",2.04%
same,"viability, T/C","second compound 0.1 µM, first compound 0.000949 µM",85.5%
same,"viability, T/C","second compound 0.1 µM, first compound 0.003 µM",63.1%
same,"viability, T/C","second compound 0.1 µM, first compound 0.00949 µM",2%
same,"viability, T/C","second compound 0.1 µM, first compound 0.03 µM",0.33%
same,"viability, T/C","second compound 0.1 µM, first compound 0.0949 µM",0.27%
same,"viability, T/C","second compound 0.1 µM, first compound 0.3 µM",3.67%
same,"viability, T/C","second compound 0.316 µM, first compound 0.000949 µM",6.64%
same,"viability, T/C","second compound 0.316 µM, first compound 0.003 µM",5.3%
same,"viability, T/C","second compound 0.316 µM, first compound 0.00949 µM",0.71%
same,"viability, T/C","second compound 0.316 µM, first compound 0.03 µM",0.38%
same,"viability, T/C","second compound 0.316 µM, first compound 0.0949 µM",0.51%
same,"viability, T/C","second compound 0.316 µM, first compound 0.3 µM",2.72%
same,"viability, T/C","second compound 1 µM, first compound 0.000949 µM",0.49%
same,"viability, T/C","second compound 1 µM, first compound 0.003 µM",1.07%
same,"viability, T/C","second compound 1 µM, first compound 0.00949 µM",0.68%
same,"viability, T/C","second compound 1 µM, first compound 0.03 µM",0.63%
same,"viability, T/C","second compound 1 µM, first compound 0.0949 µM",2.26%
same,"viability, T/C","second compound 1 µM, first compound 0.3 µM",1.33%
same,"viability, T/C","second compound 3.16 µM, first compound 0.000949 µM",0.5%
same,"viability, T/C","second compound 3.16 µM, first compound 0.003 µM",2.35%
same,"viability, T/C","second compound 3.16 µM, first compound 0.00949 µM",0.66%
same,"viability, T/C","second compound 3.16 µM, first compound 0.03 µM",0.53%
same,"viability, T/C","second compound 3.16 µM, first compound 0.0949 µM",1.54%
same,"viability, T/C","second compound 3.16 µM, first compound 0.3 µM",2.08%
same,"viability, T/C","second compound 10 µM, first compound 0.000949 µM",0.27%
same,"viability, T/C","second compound 10 µM, first compound 0.003 µM",0.26%
same,"viability, T/C","second compound 10 µM, first compound 0.00949 µM",1.83%
same,"viability, T/C","second compound 10 µM, first compound 0.03 µM",0.24%
same,"viability, T/C","second compound 10 µM, first compound 0.0949 µM",0.3%
same,"viability, T/C","second compound 10 µM, first compound 0.3 µM",2.65%

# Reference: PubChem BioAssay AID2060615 (Molecular Pharmacology Branch, DTP, NCI, 2025)
